In publication PMC12751141, “Disrupting α-Synuclein–ClpP interaction restores mitochondrial function and attenuates neuropathology in Parkinson’s disease models” (Molecular Neurodegeneration, 2025):

What was measured:
[1] = molecular target: FITC-αSyn (human) (UniProt P37840); assay: MST
[2] = molecular target: human recombinant αSyn pre-formed fibrils (PFF) (Type 1) (human); assay: MST
[3] = system: αSyn PFF-seeded aggregation; assay: αSyn ThT assay, PFF-seeded aggregation with recombinant ClpP; assay type: biochemical, human; conditions: ClpP 5/10 µM; αSyn PFF 1 µM; ThT 1 µM; PBS pH 7.4, 37 °C, 500 rpm, up to 48 h; ex 450 nm / em 485 nm; n = 4
Description: αSyn monomer (5µM) and PFF (1µM) were incubated with recombinant ClpP (5/10µM) and Thioflavin T (ThT) (1µM) in 100 µl PBS (pH 7.4) at 37 °C in a shaking incubator (500 rpm). ThT fluorescence was measured (excitation 450 nm, emission 485 nm) every 15 min up to 48 h.
Fig. 1 ClpP modulates αSyn tetramer and aggregates. […] (B) Western blot and quantification of αSyn tetramer/monomer ratio and oligomer/monomer ratio, upon intact cell DSG-crosslinking, in HEK293T cells overexpressing Myc-tagged WT αSyn with EV or Flag-tagged S153A-ClpP (n = 4–5, two-tailed Student’s t test). (C) Fluorescent images and quantification of αSyn aggregation in SH-SY5Y cells overexpressing EV or ClpP with vectors expressing Venus-N-αSyn (VN) and αSyn-C-Venus (VC) (n = 7, two-tailed Student’s t test, Scale bar = 10 μm). (D) Fluorescent images and quantification of αSyn aggregation in control knock-down (Consh) or ClpP knock-down (ClpPsh) SH-SY5Y cells overexpressing VN and VC (n = 4, two-tailed Student’s t test, Scale bar = 10 μm). (E) In vitro αSyn PFF (1µM) – seeded aggregation in the absence (control) or presence of ClpP (5/10µM) was monitored by thioflavin T (ThT) fluorescence (n = 4, two-tailed Student’s t test). […]

[4] = system: ClpP (SH-SY5Y cells); assay: ClpP protein level, western blot, SH-SY5Y cells; assay type: cell-based; conditions: WT or A53T αSyn overexpression; 30 min pretreatment; n = 4–5 (CS1: n = 4)
[5] = system: ClpP (HEK293T cells); assay: ClpP protein level, western blot, HEK293T cells; assay type: cell-based; conditions: WT or A53T αSyn overexpression; 30 min pretreatment; n = 4–5 (CS1: n = 4)
[6] = system: αSyn–ClpP binding; assay: Immunoprecipitation of recombinant ClpP and αSyn in vitro; set-up: species or system human; conditions: recombinant ClpP pre-incubated with peptide 30 min before αSyn; anti-ClpP IP; 3 independent experiments
Description: The human recombinant WT- (#S-1001-2), A53T- (#S-1001-2), ΔNAC- (#S-1015-1) and ΔC- (#S-1012-1) αSyn and FITC-αSyn (S-1113-2) were purchased from rPeptide. The human recombinant αSyn pre-formed fibrils (PFF) (Type 1) (SPR-322) and ATTO-594-PFF (SPR-322B-A594) were purchased from StressMarq Biosciences (Bioactivity has been widely validated via various approaches, e.g. TEM, ThT).
(§1) Cells or tissues were lysed in total lysis buffer (50mM Tris-HCl, pH 7.5, 150mM NaCl, 1% Triton X-100, and protease inhibitor). Total protein lysates (800 µg) were incubated with the indicated antibodies overnight at 4 °C followed by the addition of protein A/G beads (sc-2003, Santa Cruz) for 2 h at 4 °C. Various recombinant αSyn and Clpp (500 ng) were incubated in in vitro interaction buffer (20mM Tris-HCl pH 7.5, 100mM KCl, 2mM MgCl2 and 0.1% Triton-X100) for 30 min at room temperature, and then incubated with indicated antibodies overnight at 4 °C followed by the addition of protein A/G beads for 2 h at 4 °C. The beads with immuno-precipitates were pulled down at 4000 g and washed four times with total lysis buffer/in vitro interaction buffer in the presence of 0.1% Triton X-100 and were analyzed by western blot analysis.

[7] = system: αSyn oligomerization (VN/VC-αSyn), SH-SY5Y cells; assay: BiFC split-Venus αSyn oligomerization in SH-SY5Y cells; assay type: cell-based
Text: To construct truncated-αSyn plasmids, pcDNA3.1(-) was digested with BsteII and XbaI, and ΔN-, ΔC- and ΔNAC-αSyn was PCR-amplified using self-designed primers and inserted into the plasmid backbone. Cells were transfected with TransIT-2020 (Mirus Bio, LLC) following the manufacturer’s protocol.
(§2) The bimolecular fluorescence was examined 24-hour after transfection (n = 3, one-way ANOVA with Tukey’s post-hoc test, scale bar = 30 μm). (D) Quantification of the concentration (ng/ml) of extracellular αSyn monomer and oligomer, and intracellular αSyn oligomer in Tet-inducible SH-SY5Y cells that were pre-treated with TAT or CS2 peptide 30-minute before adding doxycycline (Dox) to induce αSyn expression. The concentration of αSyn species was determined by ELISA (n = 4, one-way ANOVA with Tukey’s post-hoc test; data are mean ± SEM). (E) Representative images of Mito-SOX staining in SH-SY5Y cells that were pre-treated with TAT or CS2 peptide and transfected with split Venus-αSyn vectors. Mitochondrial ROS production was determined by Mito-SOX staining after 24-hour transfection (n = 4, two-tailed Student’s t test, scale bar = 30 μm).
The bimolecular fluorescence was examined 24-hour after the transfection and quantitated (n = 14 areas/group, one-way ANOVA with Tukey’s post-hoc test, data are mean ± SEM).

[8] = system: ClpP–αSyn interaction; assay: Co-immunoprecipitation of ClpP with αSyn constructs in HEK293T cell lysates; assay type: cell-based
Description: Myc-tagged WT- and A53T- αSyn, Myc-tagged ClpP, and Flag-tagged WT- and S153A- ClpP plasmids were self-constructed as previously described (Ref). To construct truncated-αSyn plasmids, pcDNA3.1(-) was digested with BsteII and XbaI, and ΔN-, ΔC- and ΔNAC-αSyn was PCR-amplified using self-designed primers and inserted into the plasmid backbone. Cells were transfected with TransIT-2020 (Mirus Bio, LLC) following the manufacturer’s protocol.
as §1
Shown are representative blots of 3 independent experiments. Quantification of the ratio of αSyn over ClpP (pull-down) (n = 4, two-tailed Student’s t test, data are mean ± SEM).

[9] = system: SH-SY5Y cells; assay: Mitochondrial ROS (Mito-SOX) in SH-SY5Y cells; assay type: cell-based; conditions: SH-SY5Y expressing VN/VC-αSyn (CS1: WT αSyn); Mito-SOX 5 µM; vs TAT
Description: Cells cultured on coverslips or 24-well plates were washed with DPBS and then incubated with 5 µM Mito-SOX™ Red (Invitrogen, M36008), a mitochondrial superoxide indicator, for 10 min at 37 °C. For cells cultured on coverslips, the images were visualized by microscope, and quantification of images was then carried out using NIH ImageJ software. At least 100 cells per group were counted in the analysis.
as §2

Decoy peptide CS2 (TAT-C6-GGVVTA) (from UniProt P04608 47-57)
Kd [1]: 7 µM
Kd [2]: 4 µM

recombinant ClpP protein: human recombinant ClpP obtained from Dr. Aaron Schimmer
PFF-ThT fluorescence [3]: dose-dependent suppression of PFF-ThT fluorescence intensity

TAT-C6-GAVVTG [CS1, decoy peptide]
ClpP protein level, SH-SY5Y [4]: failed to restore ClpP expression
ClpP protein level, HEK293T [5]: failed to restore ClpP expression
αSyn–ClpP binding, recombinant [6]: no effect
BiFC signal / αSyn oligomerization ([7]; SH-SY5Y expressing VN/VC-αSyn, 24-hour after transfection): failed to restore ClpP expression (Fig. S4A and B), reduce αSyn oligomerization
αSyn aggregation, discussion summary ([7]; in vitro or in vivo): no effect, either in vitro or in vivo
ClpP binding to ΔC-αSyn ([8]; HEK293T lysates, Flag-ClpP + Myc-ΔC-αSyn): not CS1, abolished the binding
ClpP binding to ΔN-αSyn ([8]; HEK293T lysates, Flag-ClpP + Myc-ΔN-αSyn): not CS1, abolished the binding
ClpP binding to WT-αSyn ([8]; HEK293T lysates, WT αSyn, CS2: 24-hour treatment): not CS1, abolished the binding
αSyn-ClpP interaction, discussion summary ([8]; in vitro or in vivo): no effect, either in vitro or in vivo
mitochondrial ROS (Mito-SOX intensity) [9]: failed to restore ClpP expression (Fig. S4A and B), reduce αSyn oligomerization (Fig. S4C), or suppress ROS
